The structures appear in SMILES notation. Where a SMILES comes first, the peptide text is derived from it. Bridges are numbered along the chain shown (N, C = ends). Where only a bound is given, the exact number is not on record here.

One series deals with Male Wistar rats. Briefly: TNBS visceral hypersensitivity rat model (colorectal distension, EMG). It is filed as in vivo. Particulars: 0.3 μg/kg and 3 μg/kg, after TNBS, FIG. 7a. The procedure: Male Wistar rats (220-250 g) were premedicated with 0.5 mg/kg of acepromazine injected intraperitoneally (IP) and anesthetized by intramuscular administration of 100 mg/kg of ketamine. Pairs of nichrome wire electrodes (60 cm in length and 80 μm in diameter) were implanted in the striated muscle of the abdomen, 2 cm laterally from the white line. The free ends of electrodes were exteriorized on the back of the neck and protected by a plastic tube attached to the skin. Electromyographic (EMG) recordings were started 5 days after surgery. Electrical activity of abdominal striated muscle was recorded with an electroencephalograph machine (Mini VIII, Alvar, Paris, France) using a short time constant (0.03 sec.) to remove low-frequency signals (<3 Hz).
Ten days post surgical implantation, trinitrobenzenesulphonic acid (TNBS) was administered to induce rectal inflammation. TNBS (80 mg kg^−1 in 0.3 ml 50% ethanol) was administered intrarectally through a silicone rubber catheter introduced at 3 cm from the anus under light diethyl-ether anesthesia, as described (Morteau et al. 1994 Dig Dis Sci 39:1239). […] Evaluation of rectal sensitivity, as measured by EMG, was performed before (1-2 days) and 3 days following rectal instillation of TNBS.
The number of spike bursts that corresponds to abdominal contractions was determined per 5 min periods. […]

In a further series the test system is Female CD rats. Briefly: rat model of postoperative ileus. To be noted: oral 10 μg/kg, after abdominal surgery, FIG. 16. It counts as in vivo. The procedure: Female CD rats were used to test the effect of SEQ ID NO:3 on delayed transit induced by abdominal surgery and manual manipulation of the small intestine. Groups of at least nine rats underwent abdominal surgery under isoflurane anesthesia. Surgery consisted of laparotomy and 5 minutes of gentle manual intestinal massage. Following recovery from anesthesia, rats were dosed orally with either 10 μg/kg SEQ ID NO:3 or vehicle (20 mM Tris) in a volume of 300 μl. 1 hour after dosing, intestinal transit rate was measured. Animals were again dosed with 300 μl of the test article followed immediately by 500 μl of a charcoal meal (10% charcoal, 10% gum arabic in water). To calculate the distance of the small intestine traveled by the charcoal front, after 20 minutes, the total length of the intestine as well as the distance traveled from the stomach to the charcoal front were measured for each animal. Animals dosed with 10 μg/kg SEQ ID NO:3 experienced an increase in transit following abdominal surgery compared to animals dosed with vehicle alone (FIG. 16). Charcoal transit in SEQ ID NO:3 dosed animals was measured at 37.3+3.0% (mean+SEM) of the small intestine compared with vehicle at 24.7+1.4% (mean+SEM) of the small intestine.

Series [1] in a line: bioavailability study in mice, LCMS detection. To be noted: CD1, mouse, serum, IV and oral, FIG. 10b, read-out: bioavailable. It is filed as in vivo. How it is done:
A similar bioavailability study was performed in which LCMS rather than ELISA was used to detect SEQ ID NO:3. Initially, serum samples were extracted from the whole blood of exposed and control mice, then injected directly ([…]) onto an in-line solid phase extraction (SPE) column (Waters Oasis HLB 25 μm column, 2.0×15 mm direct connect) without further processing. The sample on the SPE column was washed with a 5% methanol, 95% dH2O solution (2.1 mL/min, 1.0 minute), then loaded onto an analytical column using a valve switch that places the SPE column in an inverted flow path onto the analytical column (Waters Xterra MS C8 5 μm IS column, 2.1×20 mm). The sample was eluted from the analytical column with a reverse phase gradient (Mobile Phase A: 10 mM ammonium hydroxide in dH2O, Mobile Phase B: 10 mM ammonium hydroxide in 80% acetonitrile and 20% methanol; 20% B for the first 3 minutes then ramping to 95% B over 4 min. and holding for 2 min., all at a flow rate of 0.4 mL/min.). At 9.1 minutes, the gradient returns to the initial conditions of 20% B for 1 min. SEQ ID NO:3 eluted from the analytical column at 1.45 minutes, and was detected by triple-quadrapole mass spectrometry (MRM, 764 (+2 charge state)>182 (+1 charge state) Da; cone voltage=30V; collision=20 eV; parent resolution=2 Da at base peak; daughter resolution=2 Da at base peak). […]

Series [2] deals with intestinal epithelial cells from wild-type and GC-C KO mice (Mus musculus, UniProt Q3UWA6). To be noted: 125I-SEQ ID NO:3 alone or with excess unlabeled SEQ ID NO:3, FIG. 9b.
Chain of intestinal epithelial cells from wild-type and GC-C KO mice (Q3UWA6 20-1072): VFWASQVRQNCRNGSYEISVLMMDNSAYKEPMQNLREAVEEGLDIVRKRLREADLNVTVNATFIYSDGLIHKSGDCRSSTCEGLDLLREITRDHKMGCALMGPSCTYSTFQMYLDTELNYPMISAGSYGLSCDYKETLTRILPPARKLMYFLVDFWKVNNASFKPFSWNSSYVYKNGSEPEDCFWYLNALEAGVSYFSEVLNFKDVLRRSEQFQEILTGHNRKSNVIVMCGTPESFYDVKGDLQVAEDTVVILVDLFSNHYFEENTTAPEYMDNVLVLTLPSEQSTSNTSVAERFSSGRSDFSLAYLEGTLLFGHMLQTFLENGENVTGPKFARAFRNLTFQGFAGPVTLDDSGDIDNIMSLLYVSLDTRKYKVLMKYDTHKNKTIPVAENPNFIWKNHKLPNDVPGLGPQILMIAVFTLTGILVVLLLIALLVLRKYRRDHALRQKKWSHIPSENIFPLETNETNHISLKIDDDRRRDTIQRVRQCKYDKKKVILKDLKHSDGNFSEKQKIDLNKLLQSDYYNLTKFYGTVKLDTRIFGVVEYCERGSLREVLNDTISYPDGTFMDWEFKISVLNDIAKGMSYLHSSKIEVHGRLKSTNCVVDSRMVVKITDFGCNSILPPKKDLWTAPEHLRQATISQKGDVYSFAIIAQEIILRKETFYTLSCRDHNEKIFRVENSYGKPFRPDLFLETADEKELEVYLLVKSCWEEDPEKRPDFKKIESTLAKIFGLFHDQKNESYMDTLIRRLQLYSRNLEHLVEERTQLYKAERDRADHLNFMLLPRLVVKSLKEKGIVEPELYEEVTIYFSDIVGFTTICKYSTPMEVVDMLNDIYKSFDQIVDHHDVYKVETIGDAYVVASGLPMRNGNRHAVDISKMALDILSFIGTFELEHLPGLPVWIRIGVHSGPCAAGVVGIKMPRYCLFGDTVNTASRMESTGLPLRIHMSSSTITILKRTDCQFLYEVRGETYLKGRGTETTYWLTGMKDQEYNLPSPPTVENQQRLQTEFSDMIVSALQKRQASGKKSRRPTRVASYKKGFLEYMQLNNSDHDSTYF
Experimental: Mouse intestinal epithelial cells were prepared identical to that above as for rat intestinal epithelial cells except the cells were homogenized with an Omni homogenizer for 20 seconds on the maximum setting to make a suspension of cells. A competition binding assay was performed identical to that described above between ^125I labeled SEQ ID NO:3 and unlabeled SEQ ID NO:3 (competitor).
The test system of the next series is adult male Wistar rats. Briefly: basal visceral nociception (visceromotor response to CRD). It is filed as in vivo, rat. How it is done:
The effect of SEQ ID NO:3 on basal visceral nociception in a model of water avoidance stress-induced visceral hyperalgesia in adult male Wistar rats was tested. The stress involved confining rats to a platform surrounded by water for a period of 1 hour and then measuring their visceromotor response to colonic distension using electromyography (EMG).
Electrode leads were then tunneled subcutaneously and externalized laterally for future access. Following surgery, rats were housed in pairs and allowed to recover for at least 7 days. On the day of the experiment, animals were lightly anesthetized with halothane, and a lubricated latex balloon (6 cm) was inserted intra-anally into the descending colon. Animals were allowed to recover for 30 minutes, and colorectal distension (CRD) was initiated. The CRD procedure consisted of graded intensities of phasic CRD (10, 20, 40, 60 mmHg; 20 s duration; 4 min inter-stimulus interval). Visceromotor response (VMR) to CRD was quantified by measuring EMG activity. […] Animals were allowed 1 hour recovery and then SEQ ID NO:3 or vehicle was orally administered. At 1 hour following administration of SEQ ID NO:3 or vehicle CRD was repeated. […] The mean value (+/−SEM) of in vehicle and SEQ ID NO:3 treated groups (n=7 for each group) is graphically depicted in FIG. 7e.

As to `C[C@@H]1NC(=O)[C@@H]2CCCN2C(=O)[C@H](CC(N)=O)NC(=O)[C@@H]2CSSC[C@H](N)C(=O)N[C@H]3CSSC[C@H](NC1=O)C(=O)N[C@@H]([C@@H](C)O)C(=O)NCC(=O)N[C@H](C(=O)N[C@@H](Cc1ccc(O)cc1)C(=O)O)CSSC[C@H](NC(=O)[C@H](Cc1ccc(O)cc1)NC(=O)[C@H](CCC(=O)O)NC3=O)C(=O)N2` [SEQ ID NO:3] (H-CCEYCCNPACTGCY-OH; disulfide 1-6, 2-10, 5-13; N-terminus and C-terminus assumed), the “abdominal response to colorectal distension” value in the series with Male Wistar rats is “Significant decreases in abdominal response”. In addition, the “Charcoal transit, of the small intestine (mean+SEM)” value with Female CD rats was 37.3+3.0%. Moreover, in series [1], the bioavailability is under 0.11%. Also, in series [2], the “binding to intestinal epithelial cells, GC-C KO compared to wild-type mice” value is reported as “reduction in SEQ ID NO:3 binding”. Also, the basal visceral nociception result in the series with adult male Wistar rats (oral 3 μg/kg) is “no effects”; with adult male Wistar rats (oral 30 μg/kg, versus vehicle, FIG. 7e) it was “increased basal visceral nociception”.

(Values after US20090305993A1, “METHODS AND COMPOSITION FOR THE TREATMENT OF GASTROINTESTINAL DISORDERS” (IRONWOOD PHARMACEUTICALS, INC., priority 2006, published 2009).)
